Reference: ChEMBL document CHEMBL5137062, “Overview of Methionine Adenosyltransferase 2A (MAT2A) as an Anticancer Target: Structure, Function, and Inhibitors” (J Med Chem, 2022)

Key:
[1] = biological target: T1, S-adenosylmethionine synthase isoform type-2 (Homo sapiens, UniProt P31153); assay: Inhibition of human MAT2A assessed as S-adenosyl methionine production using L-methionine as substrate pretreated for 60 mins followed by L-methionine and ATP addition by colorimetric analysis
[2] = biological target: T1, S-adenosylmethionine synthase isoform type-2; assay: Inhibition of MAT2A (unknown origin) assessed as S-adenosyl methionine production using L-methionine as substrate pretreated for 60 mins followed by L-methionine and ATP addition
[3] = Antiproliferative activity against human HCT116-MTAP null cells assessed as cell growth inhibition measured after 6 days by Cell Titer Glo analysis; assay type: functional, cell-based; conditions: 144 h
HCT-116 [4] = assay: Antiproliferative activity against human HCT-116 cells expressing MTAP assessed as cell growth inhibition measured after 6 days by Cell Titer Glo analysis; assay type: functional, cell-based; conditions: HCT-116, 144 h
[5] = Inhibition of rat liver MAT isozymes assessed as S-adenosyl methionine production using L-methionine as substrate in presence of ATP; assay type: tissue-based
[6] = Inhibition of rat novikoff liver hepatoma MAT isozymes assessed as S-adenosyl methionine production using L-methionine as substrate in presence of ATP; assay type: tissue-based
[7] = biological target: T1, S-adenosylmethionine synthase isoform type-2; assay: Inhibition of MAT2A in human NCI-H520 cells transfected with MAT2A empty vector assessed as inhibition of S-adenosyl methionine production measured after 6 hrs by Rapid Fire Mass Spectrometry analysis; assay type: cell-based
[8] = biological target: T1, S-adenosylmethionine synthase isoform type-2; assay: Inhibition of MAT2A in human Huh-7 cells assessed as inhibition of S-adenosyl methionine production measured after 6 hrs by Rapid Fire Mass Spectrometry analysis; assay type: cell-based
[9] = biological target: T1, S-adenosylmethionine synthase isoform type-2; assay: Inhibition of human MAT2A expressed in baculovirus infected Sf9 cells expression system assessed as S-adenosyl methionine production using L-methionine as substrate pretreated for 60 mins followed by L-methionine and ATP addition
HCT-116 [10] = assay: Antiproliferative activity against human HCT-116 cells expressing MTAP assessed as cell growth inhibition incubated for 24 hrs by Cell Titer Glo analysis; assay type: functional, cell-based; conditions: HCT-116, 24 h
[11] = Antiproliferative activity against human HCT116-MTAP null cells assessed as cell growth inhibition incubated for 92 hrs by In-cell western analysis; assay type: functional, cell-based
[12] = biological target: T1, S-adenosylmethionine synthase isoform type-2; assay: Inhibition of human recombinant His-tagged MAT2A expressed in Escherichia coli expression system assessed as S-adenosyl methionine production using L-methionine as substrate incubated for 20 mins followed by L-methionine and ATP addition by malachite green phosphate assay
[13] = biological target: T1, S-adenosylmethionine synthase isoform type-2; assay: (§1) Inhibition of N-terminal TEV cleavable 6His-tagged human MAT2A (1 to 395 residues) expressed in Escherichia coli BL21 (DE3) cells assessed as S-adenosyl methionine production using L-methionine as substrate incubated for 30 mins followed by L-methionine and ATP addition by MS/MS analysis
[14] = biological target: S-adenosylmethionine synthase isoform type-1 (Homo sapiens) (UniProt Q00266); assay: as §1, with “MAT1A” for “MAT2A”, “334” for “395”, “analysis relative to control” for “analysis”
Sequence of S-adenosylmethionine synthase isoform type-1 (Homo sapiens) (Q00266 whole entry, canonical isoform): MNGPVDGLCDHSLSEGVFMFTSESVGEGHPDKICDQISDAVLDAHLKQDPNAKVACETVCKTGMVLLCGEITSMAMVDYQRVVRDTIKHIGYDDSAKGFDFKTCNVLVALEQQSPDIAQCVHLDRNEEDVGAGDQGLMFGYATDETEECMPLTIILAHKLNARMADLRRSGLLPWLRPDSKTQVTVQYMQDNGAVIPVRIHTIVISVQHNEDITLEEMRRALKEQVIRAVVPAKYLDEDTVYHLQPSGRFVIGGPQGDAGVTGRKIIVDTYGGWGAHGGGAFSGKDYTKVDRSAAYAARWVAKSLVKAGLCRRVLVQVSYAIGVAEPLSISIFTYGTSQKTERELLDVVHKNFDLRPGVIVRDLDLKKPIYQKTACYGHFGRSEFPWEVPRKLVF

T1 sequence (P31153 whole entry, canonical isoform): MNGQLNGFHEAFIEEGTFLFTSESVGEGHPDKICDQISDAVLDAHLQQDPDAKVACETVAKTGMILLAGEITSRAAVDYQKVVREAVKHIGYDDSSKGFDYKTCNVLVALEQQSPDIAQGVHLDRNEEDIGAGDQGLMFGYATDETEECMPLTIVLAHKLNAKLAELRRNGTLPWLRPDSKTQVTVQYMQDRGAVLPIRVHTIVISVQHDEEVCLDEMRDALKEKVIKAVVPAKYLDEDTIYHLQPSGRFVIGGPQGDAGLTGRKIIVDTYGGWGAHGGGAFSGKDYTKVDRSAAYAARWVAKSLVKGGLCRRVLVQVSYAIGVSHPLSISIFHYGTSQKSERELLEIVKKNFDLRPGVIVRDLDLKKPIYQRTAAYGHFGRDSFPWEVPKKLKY

Q: Which IC50 [1] does the source give for `Cc1cc(C)c(-c2cnc(NC(=O)c3cccc(Cn4ccccc4=O)c3)n2C)cc1Br` here?
A: The IC50 was < 0.5 µM.

Q: For `CCOc1ncc2cc(-c3ccc4ncn(C)c4c3)c(=O)n(-c3ccc(OC(F)F)cc3)c2n1`, which IC50 [2] is on record?
A: Its IC50 is 0.0195 µM.

Q: And the IC50 [3]?
A: The IC50 was 0.0844 µM.

Q: And the IC50 (HCT-116 [4])?
A: Its IC50 is 3.8 µM.

Q: Which IC50 [5] does the source give for `NC1(C(=O)O)CCCC1` [CYCLOLEUCINE] here?
A: The IC50 was 209 µM.

Q: And the IC50 [6]?
A: The IC50 was 209 µM.

Q: What about the IC50 [7] of the same compound?
A: The IC50 was 5600 µM.

Q: And the IC50 [8]?
A: Its IC50 is 1300 µM.

Q: Which IC50 [9] does the source give for `CCNc1ccc2nn(-c3ccc4nc(C)n(C)c4c3)c(=O)c(-c3ccc(C(F)F)cc3)c2n1` here?
A: Its IC50 is < 0.1 µM.

Q: And the IC50 (HCT-116 [10])?
A: Its IC50 is > 1 µM.

Q: For `CCNc1ccc2nn(-c3ccc4nn(C)cc4c3)c(=O)c(-c3ccc(Cl)cc3)c2n1`, which IC50 [9] is on record?
A: Its IC50 is < 0.1 µM.

Q: What about the IC50 (HCT-116 [10]) of the same compound?
A: The IC50 was > 1 µM.

Q: For `COc1ccc(-c2c(=O)n(-c3ccc4ncsc4c3)nc3ccc(OCC(F)F)nc23)cc1`, which IC50 [9] is on record?
A: The IC50 was < 0.1 µM.

Q: What about the IC50 (HCT-116 [10]) of the same compound?
A: The IC50 was > 1 µM.

Q: With `Cc1cc(=O)n2nc(C)c(-c3ccccc3)c2[nH]1` as the compound, how does the IC50 [9] read?
A: Its IC50 is 0.008 µM.

Q: And the IC50 [11]?
A: Its IC50 is 0.009 µM.

Q: For `CCOc1ncc2cc(C3=CC4N=C(CCN5CCC(O)C5)N(C)C4C=C3)c(=O)n(-c3ccc(OC(F)F)cc3)c2n1` (stereo not given), which IC50 [2] is on record?
A: Its IC50 is 0.0047 µM.

Q: For `CCOc1ncc2cc(-c3ccc(OC)cc3C)c(=O)n(-c3ccc(OC(F)F)cc3)c2n1`, which IC50 [2] is on record?
A: The IC50 was 0.0701 µM.

Q: Which IC50 [12] does the source give for `CNc1ccc(/C=C/c2c(F)cccc2Cl)cc1` here?
A: The IC50 was 2.1 µM.

Q: With `CN(C)CCc1nnc2cc(-c3ccccc3)c3cc(Cl)ccc3n12` as the compound, how does the IC50 [13] read?
A: Its IC50 is 0.42 µM.

Q: And the IC50 [7]?
A: Its IC50 is 1.2 µM.

Q: And the IC50 [8]?
A: Its IC50 is 0.225 µM.

Q: What about the inhibition [14] of the same compound?
A: Its inhibition is 50%.

Q: Which IC50 [9] does the source give for `COc1ccc(N2C(=O)N(c3ccc4nn(C)cc4c3)Cc3cnc(NCC(F)(F)F)nc32)cc1` here?
A: The IC50 was < 0.1 µM.

Q: And the IC50 (HCT-116 [10])?
A: The IC50 was > 1 µM.

Q: Which IC50 [9] does the source give for `[2H]C([2H])([2H])Oc1ccc(N2C(=O)N(c3ccc4nn(C)cc4c3)Cc3cnc(OCC(F)F)nc32)cc1` here?
A: The IC50 was < 0.1 µM.

Q: And the IC50 (HCT-116 [10])?
A: Its IC50 is > 1 µM.

Q: Which IC50 [12] does the source give for `CN(C)c1ccc(/C=C/c2c(F)cccc2F)cc1` here?
A: The IC50 was 4.9 µM.

Q: With `Cc1cc(C)c(-c2cnc(NC(=O)c3cccc(Cn4cccn4)c3)n2C)cc1C` as the compound, how does the IC50 [1] read?
A: The IC50 was < 0.5 µM.

Q: With `Cc1cc(-c2cnc(NC(=O)c3cccc(CN4CCCC4=O)c3)n2C)ccc1O` as the compound, how does the IC50 [1] read?
A: Its IC50 is < 0.5 µM.

Q: Which IC50 [2] does the source give for `Cn1cnc2ccc(-c3cc4cnc(NCC(F)(F)F)nc4n(-c4ccc(OC(F)F)cc4)c3=O)cc21` here?
A: Its IC50 is 0.0365 µM.

Q: And the IC50 [3]?
A: Its IC50 is 0.102 µM.

Q: What about the IC50 (HCT-116 [4]) of the same compound?
A: Its IC50 is > 10 µM.

Q: With `COc1ccc(N2Cc3ccc(NCC(F)(F)F)nc3N(c3ccc(-c4ncn[nH]4)cc3)C2=O)cc1` as the compound, how does the IC50 [9] read?
A: Its IC50 is < 0.1 µM.

Q: What about the IC50 (HCT-116 [10]) of the same compound?
A: The IC50 was > 1 µM.
